This note sets out measurements from patent US12653181B2, “Control of ripening and senescence in pre-harvest and post-harvest plants and plant materials by manipulating alternative oxidase activity” (Washington State University, priority 2012, dated 2026).

“Also recorded” adds a separate entry of the source.

For test [1], the system named is Wild type tomatoes (var. 'Ailsa Craig'). Kind of test: Ripening (visual pigmentation) of wild type mature green tomato fruit. It counts as in vivo. Conditions: for ripening response (pigmentation green to red) versus deionized water control: treated or injected with 1 mL of 2% solution, 7 days.
The test system of another test is Bartlett pears. Kind of test: Ethylene and CO2 evolution of 1-MCP treated Bartlett pears in air-tight chambers (GC-FID, gas analyzer). It counts as in vivo, Pyrus communis. On the procedure:
Thereafter, each experimental group of fruit was placed in a separate air-tight chamber connected to a gas chromatography (GC) instrument configured to draw samples every 8 hours over the course of 5 days, to measure ethylene via a flame ionizing detector (FID), and to measure CO2 via a gas analyzer. The experiment was performed with 4 pears per chamber in 3 replicates per experimental group. Monitoring was performed to detect minor variation in air flow rates in all experimental chambers used and detected variations were accounted for in subsequent calculations.

For test [2], the system named is Non-MCP treated D'Anjou pears. The test can be described thus: Flesh firmness of non-MCP treated D'Anjou pears after atomized GLA exposure (penetrometer). It counts as in vivo, pear. Conditions: 3% GLA, various exposure times, 1, 3, 5, 7 days post exposure. The protocol:
Pear fruit: Non-MCP treated D'Anjou pears picked on Oct. 4, 2019 were obtained from Blue Bird packing house (Blue Bird Inc., Wenatchee Washington) and stored at 1° C. until use.
GLA treatment: Humidification via sonication was accomplished by administering 1 liter of 3% GLA solution into the reservoir of a Crane humidifier model EE-5301. Atomized GLA solution was directed via surgical tubing from the humidifier into a custom acrylic chamber measuring approximately 40×60×60 cm containing 12 pears per treatment. Pears were elevated from the chamber floor on metal baking racks to allow for exposure to GLA on all faces. One (1) 1 cm diameter port allowed for gas exchange between the atmosphere and chamber. A thick cloud of atomized GLA solution was visible in each chamber for the duration of each experimental exposure time. All experiments were conducted at 20° C.
(§1) Firmness measurements: Fruit firmness was measured via FTA penetrometer (GUSS Manufacturing, Norfolk, VA) at three equidistant locations around the middle of each fruit. Therefore, one biological replicate yielded three technical replicates. For each penetrometer measurement, approximately 2 cm^2 of fruit epidermal tissue was removed with a fruit peeler. Firmness measurements were taken at the locations on the fruit where epidermal tissue was removed. […]

Test [3] relates to fruit slices of 1-MCP pre-treated pears. The test can be described thus: Ethylene from slices of 1-MCP pre-treated pears immersed in glyoxylic acid, airtight jar. It counts as in vivo, pear. Conditions: immersed 12-24 hours, measured after 8 hours. On the procedure:
The effect of glyoxylic acid on the restarting of ripening after 1-MCP-mediated arrest was also assayed with fruit that was sliced. Whole unripe pears were pre-treated with 1-MCP according to standard practice. The unripe pre-treated fruit were sliced and subject to glyoxylic acid treatments to assess its ability to induce ripening in the sliced fruit. First, fruit slices were immersed in 0.5 mM and 2.5 mM glyoxylic acid solution for 12-24 hours and placed in an airtight jar. Ethylene levels were measured after 8 hours. […] Slices immersed in the 2.5 mM glyoxylic also produced more (approximately 2-fold more) ethylene than the controls, although the increase in ethylene levels was not as high as for the 0.5 mM treatment.

Test [4] has as its system 1-MCP pre-treated fruit (whole pear). The test can be described thus: Firmness and Brix of 1-MCP pre-treated whole pears after ambient fogging with glyoxylic acid. It counts as in vivo. The conditions noted are these: 1% (0.135 M) ambient fogging. On the procedure: (§2) In order to ripen whole pear fruit pretreated with 1-MCP, the fruits were treated by immersion in 0 mM, 0.1 mM, 0.25 mM, 0.5 mM glyoxylic acid. In other experiments, the fruits were treated by ambient fogging of fruit with 1 liter of solution of 1% (0.135 M), 2% (0.270 M) and 3% (0.405 M) glyoxylic acid solution (determined with 74 as the molecular weight of glyoxylic acid). The ambient fogging was carried out in a 192,000 cm^3 volume chamber using an ultrasonic humidifier. Various indicators of ripening were assayed thereafter.
Next, 1-MCP pre-treated fruit were treated with glyoxylic acid using ambient fogging at 0% or 1% (0.135 M) glyoxylic acid. In this experiment, the fruit firmness was measured at two time points—immediately after the fogging treatment and again 8 days later using a penetrometer. […] The fruit were also assessed for ripeness by assaying the Brix values, which are indicative of total soluble solids and also serve as an industry standard for fruit ripening. […] All these experiments have been repeated multiple times and have been consistent with the above data.

Another test relates to whole pears. The test can be described thus: Firmness of whole pears after 24 h immersion in glyoxylic acid solution (penetrometer). It is filed as in vivo, pear. The conditions noted are these: after 6 days. On the procedure: as §2, with “thereafter. In a first assay, whole pears pre-treated with 1-MCP were immersed in 0 mM, 0.1 mM, 0.25 mM, or 0.5 mM glyoxylic acid solution for 24 hours. The fruit was assayed for firmness using a penetrometer six days after the immersion treatment. FIG. 7 graphically illustrates the reduction in firmness (i.e., development of softness) in pear fruit treated with various concentrations of glyoxylic acid. Non-1-MCP treated fruit (light bars) and 1-MCP treated fruit (dark bars) responded differently to glyoxylic acid treatment.” for “thereafter.”

Another test relates to rin tomato fruit. Kind of test: Ripening (visual pigmentation) of rin mutant tomato fruit. Conditions: for ripening response (change in pigmentation) of rin tomato fruit: 2% GLA, observed over 14 days; for pigment response in untreated rin fruit on the same branches as treated fruit: GLA injection to a single fruit. It is filed as in vivo.
The subject of another test is Mango. The test can be described thus: Mango fruit flesh firmness after atomized GLA exposure (penetrometer). Conditions: 3% GLA, 16 hours, readings confounded by variable rinds. It is filed as in vivo. On the procedure:
(§3) Fruits: Avocado and Mango fruits were purchased from Pullman Walmart and half were immediately placed in separate chambers for administration of glyoxylic acid, half were left on the bench top at 20° C.
(§4) GLA treatment: Humidification via sonication was accomplished by administering 1 liter of 3% (m/V) glyoxylic acid (GLA) solution in deionized water into the reservoir of a Crane humidifier model EE-5301. Atomized GLA solution was directed via surgical tubing from the humidifier into a custom acrylic chamber measuring approximately 40×60×60 cm containing 12 pears per treatment for 16 hours. Fruits were elevated from the chamber floor on metal baking racks to allow for exposure to GLA on all faces. One (1) 1 cm diameter port allowed for gas exchange between the atmosphere and chamber. A thick cloud of atomized GLA solution was visible in each chamber for the duration of each experimental exposure time. All experiments were conducted at 20° C.
as §1

Test [5] deals with whole pears with or without 1-MCP pre-treatment. Kind of test: Internal ethylene of pears after ambient fogging with glyoxylic acid (gas extraction, GC/MS). It is filed as in vivo, pear. Conditions: both 1-MCP pre-treated and non-1-MCP pre-treated fruit. The protocol:
As an additional confirmation of glyoxylic acid-mediated ripening of 1-MCP pre-treated pears, the internal ethylene of the fruit was also measured. First, the whole fruit with or without 1-MCP pre-treatment were treated with 0.5% ([…]) or 1% (0.135 M) glyoxylic acid using ambient fogging. Thereafter, one quarter of four separate pears from each treatment was sliced into four pieces and placed into a gas extraction chamber. A vacuum was created using an aspirator. For each experiment, 0.5 ml of extracted ethylene gas was injected into the GC/MS in three replicates. Measurements of ethylene in ppm were calculated using a previously established standard curve.

The test system of the next test is sliced pear fruit. Kind of test: Ethylene evolved from sliced 1-MCP fruit treated with glyoxylic acid in sealed modified atmosphere bag. It is filed as in vivo. On the procedure: Next, a modified protocol was followed to expose fruit slices derived from 1-MCP pre-treated fruit to solutions of glyoxylic acid. Glyoxylic acid solutions ranging from 0.005% (0.675 mM), 0.150% (20.25 mM), 0.5% ([…]), 1% (0.135 M), 2% (0.270 M), 2.5% (0.338 M) and 3% (0.405 M) were prepared either alone or in conjunction with the Nature seal solution, which contains antioxidants that prevent fruit oxidation. 1-MCP fruit was sliced and treated with the 0.005%, 0.150%, 0.5% or 2.5% glyoxylic acid solutions and placed in a modified, sealed atmosphere bag. The amount of evolved ethylene was measured directly from the sealed bag of fruit. […] Finally, the 1-MCP fruit that were sliced and treated with 1%, 2% and 3% glyoxylic acid were evaluated in consumer preference trials in 2014 and 2015.

A further test deals with Haas avocado. The test can be described thus: Avocado fruit flesh firmness after atomized GLA exposure (penetrometer). It counts as in vivo. The conditions noted are these: for percentage of terminal ripened firmness achieved: 3% GLA 16 hours. The protocol:
as §3, §4
Firmness measurements: Fruit firmness was measured via FTA penetrometer (GUSS Manufacturing, Norfolk, VA) at three equidistant locations around the middle of each fruit. Therefore, one biological replicate yielded three technical replicates. For each penetrometer measurement, approximately 2 cm^2 of fruit epidermal tissue was removed with a fruit peeler. Firmness measurements were taken at the locations on the fruit where epidermal tissue was removed. Firmness measurements were taken from three biological replicates per treatment at 1, 3, 5 and 7 days post treatment (DPT).
Firmness normalization: Firmness measurements were normalized to account for variability in starting fruit flesh firmness. At the start of each experiment, three untreated fruits were selected, and three fruit flesh measurements were taken from each and averaged. Firmness measurements from each exposure time treatment are reported as a percentage of the starting fruit flesh firmness average.

On to `[Cl-].[Cl-].[Co+2]` [CoCl2, reference compound], for which the visible ripening response result in test [1] (in vivo) is given as “no visible ripening response”.

For the molecule `S` [RC-1, hydrogen sulfide], in the test on Bartlett pears (0.5 mM H2S), the evolution of ethylene result is “clear and steady increase in the evolution of ethylene”. Besides, the “level of respiration (evolved CO2)” value in the test on Bartlett pears (0.5 mM H2S (RC-1), 5 days monitoring) is on record as “positive trend”; with Bartlett pears (0.5 mM H2S (RC-1), 5 days monitoring, listed as H2S), “generally positive trend”; in the test with Bartlett pears (2.5 mM H2S, perhaps a stress response), “higher levels of carbon dioxide”. Also, the “level of ethylene versus control fruit” value with Bartlett pears (2.5 mM H2S) is “indistinguishable and very low”. Besides, the “time post-treatment at which ethylene evolution is observed” value with Bartlett pears (RC-1, pear fruit blocked for ripening by 1-MCP) was 48 h.

Take `O=CC(=O)O` [glyoxylic acid]: the “time at which ethylene evolution is observed” value with Bartlett pears (0.25 mM RC-2, pear fruit blocked for ripening by 1-MCP) was at most 16 h. Further, the evolution of ethylene entry with Bartlett pears (0.25 mM glyoxylic acid (RC-2)) is “clear and steady increase in the evolution of ethylene”. Further, in the test on Bartlett pears (1, 2.5 and 10 mM glyoxylic acid), the “level of ethylene versus control fruit” value is “indistinguishable and very low”. Besides, the “maturation in pears after 1-MCP treatment” value in the test on Bartlett pears (as little as 0.25 mM) is recorded as “induces maturation”. Besides, the “ripening as measured by pear fruit flesh firmness” value in test [2] is given as “trend towards accelerated ripening”. The entries for the “ripening response (pigmentation green to red) versus deionized water control” value in [1] and in test [1] (listed as GLA) were “accelerated ripening” and “accelerated ripening response”, respectively. In addition, the “ethylene generated relative to control slices” value was 5 fold in test [3] (0.5 mM) and “approximately 2 fold” in [3] (2.5 mM). Also, the fruit firmness in [4] (8 days) came to 2 lbf. Further, the “Brix values (total soluble solids)” value in test [4] (8 days post fogging) was “significantly increased brix values”. Moreover, in the test on whole pears (0.5 mM immersion solution), the “firmness effect in 1-MCP treated fruit” value is reported as “especially enhanced over control”. In addition, the “firmness of non-1-MCP treated fruit” value in the test on whole pears (0.5 mM) is recorded as “reduction in firmness is evident”. Besides, in the test with whole pears (all concentrations (0.1, 0.25, 0.5 mM), 24 h immersion, compared to non-1-MCP treated fruit), the “firmness of 1-MCP treated fruit” value was “drop in firmness”. Further, the “ripening response (change in pigmentation) of rin tomato fruit” value in the test with rin tomato fruit is on record as “change in pigmentation resembling that achieved at breaker stage in wild type tomatoes”; with rin tomato fruit (listed as GLA), “enables ripening of rin mutant fruit”. Besides, the “pigment response in untreated rin fruit on the same branches as treated fruit” value is “systemic” in the test with rin tomato fruit and “Systemic pigmentation response” in the test on rin tomato fruit (listed as GLA). Besides, in the test on Mango, the “ripening as measured by fruit flesh firmness” value is “trend towards accelerated ripening”. Besides, the internal ethylene evolution result in test [5] (0.5% (0.6.75 mM) ambient fogging) and in test [5] (1% (0.135 M) ambient fogging) was “effective in inducing the evolution of ethylene” in each case. Further, in the test with sliced pear fruit (2.5% (337 mM) solution, sealed atmosphere bag), the “evolution of ethylene from sliced fruit versus control” value is reported as “enhanced the evolution of ethylene; also recorded: significantly increased ethylene production”. In addition, the “ethylene evolved versus control fruit” value with sliced pear fruit (some of a range of concentrations (0.005%-2.5%)) was “releases more ethylene than the control fruit”. The figures for the “percentage of terminal ripened firmness achieved” value in the test with Haas avocado (one day post treatment (control 31%)) and with Haas avocado (three days post treatment (control 96%)) were 81% and 92%, respectively. The “ripening as measured by fruit flesh firmness versus non-GLA control” value in the test on Haas avocado (3% GLA solution, atomized, 16 hours, listed as GLA) is “significant acceleration of ripening; also recorded: evidence for accelerated ripening”.
